# Experimental data published in the supplement of paper PMC9663587.
# Tests used:
# Paclitaxel = compound: CC(=O)O[C@H]1C(=O)[C@@]2(C)[C@H]([C@H](OC(=O)c3ccccc3)[C@]3(O)C[C@H](OC(=O)[C@H](O)[C@@H](NC(=O)c4ccccc4)c4ccccc4)C(C)=C1C3(C)C)[C@]1(OC(C)=O)CO[C@@H]1C[C@@H]2O [Paclitaxel]
# [1] = compound: CCC1=CN=CN=C1N2CCN(CC2)CC3=NC4=C(N3)C=C(C=C4)C(F)(F)F
# Neratinib/HKI272 = compound: CCOc1cc2ncc(C#N)c(Nc3ccc(OCc4ccccn4)c(Cl)c3)c2cc1NC(=O)/C=C/CN(C)C [Neratinib/HKI272]
# [2] = compound: CCN1CCN(Cc2ccc(Nc3ncc(F)c(-c4cc(F)c5nc(C)n(C(C)C)c5c4)n3)nc2)CC1; experiment: GR value, 72 h; higher = faster growth (1 = untreated, <0 = killing);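 also: breast cancer and non-malignant breast epithelial lines, nine half-log doses, viable cells counted by Hoechst and LIVE/DEAD dye imaging versus time-zero plates and DMSO controls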
# [3] = compound: CCc1cnn2c(NCc3ccc[n+]([O-])c3)cc(N3CCCC[C@H]3CCO)nc12; experiment: as above
# BVD523 = compound: CC(C)Nc1cc(-c2c[nH]c(C(=O)N[C@H](CO)c3cccc(Cl)c3)c2)c(Cl)cn1 [BVD523]
# Flavopiridol [4] = compound: T1, CN1CC[C@H](c2c(O)cc(O)c3c(=O)cc(-c4ccccc4Cl)oc23)[C@H](O)C1 [Flavopiridol]
# [5] = compound: CO[C@@H](C)Cn1c(=O)n(C)c2cnc3ccc(-c4cncc(C(C)(C)O)c4)cc3c21
# AZD5363 = compound: NC1(C(=O)N[C@@H](CCO)c2ccc(Cl)cc2)CCN(c2nc[nH]c3nccc2-3)CC1 [AZD5363]
# YKL-5-124 = compound: C=CC(=O)Nc1ccc(C(=O)Nc2[nH]nc3c2CN(C(=O)N[C@H](CN(C)C)c2ccccc2)C3(C)C)cc1 [YKL-5-124]; experiment: GR value, 72 h; higher = faster growth (1 = untreated, <0 = killing);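 also: breast cancer and non-malignant breast epithelial lines, nine half-log doses, viable cells counted by Hoechst and LIVE/DEAD dye imaging versus time-zero plates and DMSO controls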
# BSJ-03-123 = compound: CC(=O)c1c(C)c2cnc(Nc3ccc(N4CCN(CCOCCOCCOCCNC(=O)COc5cccc6c5C(=O)N(C5CCC(=O)NC5=O)C6=O)CC4)cn3)nc2n(C2CCCC2)c1=O [BSJ-03-123]; experiment: as above
# LEE011/Ribociclib = compound: CN(C)C(=O)c1cc2cnc(Nc3ccc(N4CCNCC4)cn3)nc2n1C1CCCC1 [LEE011/Ribociclib]; experiment: as above
# THZ531 = compound: CN(C)C/C=C/C(=O)Nc1ccc(C(=O)N2CCC[C@@H](Nc3ncc(Cl)c(-c4c[nH]c5ccccc45)n3)C2)cc1 [THZ531]; experiment: as above
# THZ1 = compound: CN(C)C/C=C/C(=O)Nc1ccc(C(=O)Nc2cccc(Nc3ncc(Cl)c(-c4c[nH]c5ccccc45)n3)c2)cc1 [THZ1]; experiment: as above
# Flavopiridol [6] = compound: T1, Flavopiridol; experiment: as above
# 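For GR50, 72 h in this document: breast cancer and non-malignant breast epithelial cell lines, Deep Dye Drop or Dye Drop imaging, nine half-log doses, GR normalized to time-zero plates and DMSO-only controls.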
cell line,measurement,setting,value
HCC1500,"GR50, 72 h",Paclitaxel,0.00382 µM
same,"GR50, 72 h",[1],1.66 µM
same,"GR50, 72 h",Neratinib/HKI272,0.785 µM
same,GR value,[2]; 0.001 µM,1.1 GR
same,GR value,[2]; 0.003162 µM,0.961 GR
same,GR value,[2]; 0.01 µM,0.802 GR
same,GR value,[2]; 0.03162 µM,0.592 GR
same,GR value,[2]; 0.1 µM,0.533 GR
same,GR value,[2]; 0.3162 µM,0.701 GR
same,GR value,[2]; 1 µM,0.494 GR
same,GR value,[2]; 3.162 µM,0.395 GR
same,GR value,[2]; 10 µM,0.195 GR
same,GR value,[3]; 0.0001 µM,1.07 GR
same,GR value,[3]; 0.0003162 µM,0.975 GR
same,GR value,[3]; 0.001 µM,1.06 GR
same,GR value,[3]; 0.003162 µM,1.06 GR
same,GR value,[3]; 0.01 µM,0.674 GR
same,GR value,[3]; 0.03162 µM,-0.172 GR
same,GR value,[3]; 0.1 µM,-0.576 GR
same,GR value,[3]; 0.3162 µM,-0.534 GR
same,GR value,[3]; 1 µM,-0.601 GR
PDX1328,"GR50, 72 h",Paclitaxel,0.00287 µM
same,"GR50, 72 h",BVD523,> 10 µM
same,"GR50, 72 h",[1],> 10 µM
same,"GR50, 72 h",Neratinib/HKI272,0.264 µM
same,"GR50, 72 h",Flavopiridol [4],0.181 µM
same,"GR50, 72 h",[5],0.00195 µM
same,"GR50, 72 h",AZD5363,> 10 µM
same,GR value,YKL-5-124; 0.001 µM,0.525 GR
same,GR value,YKL-5-124; 0.003162 µM,0.572 GR
same,GR value,YKL-5-124; 0.01 µM,0.406 GR
same,GR value,YKL-5-124; 0.03162 µM,0.424 GR
same,GR value,YKL-5-124; 0.1 µM,0.45 GR
same,GR value,YKL-5-124; 0.3162 µM,0.301 GR
same,GR value,YKL-5-124; 1 µM,0.351 GR
same,GR value,YKL-5-124; 3.162 µM,0.295 GR
same,GR value,YKL-5-124; 10 µM,-0.0349 GR
same,GR value,BSJ-03-123; 0.001 µM,0.951 GR
same,GR value,BSJ-03-123; 0.003162 µM,0.816 GR
same,GR value,BSJ-03-123; 0.01 µM,0.819 GR
same,GR value,BSJ-03-123; 0.03162 µM,0.792 GR
same,GR value,BSJ-03-123; 0.1 µM,0.852 GR
same,GR value,BSJ-03-123; 0.3162 µM,0.646 GR
same,GR value,BSJ-03-123; 1 µM,0.479 GR
same,GR value,BSJ-03-123; 3.162 µM,0.531 GR
same,GR value,BSJ-03-123; 10 µM,0.0901 GR
same,GR value,[2]; 0.001 µM,0.866 GR
same,GR value,[2]; 0.003162 µM,0.775 GR
same,GR value,[2]; 0.01 µM,0.537 GR
same,GR value,[2]; 0.03162 µM,0.323 GR
same,GR value,[2]; 0.1 µM,0.266 GR
same,GR value,[2]; 0.3162 µM,0.301 GR
same,GR value,[2]; 1 µM,0.263 GR
same,GR value,[2]; 3.162 µM,0.176 GR
same,GR value,[2]; 10 µM,-0.621 GR
same,GR value,[3]; 0.0001 µM,1.05 GR
same,GR value,[3]; 0.0003162 µM,1.11 GR
same,GR value,[3]; 0.001 µM,1.06 GR
same,GR value,[3]; 0.003162 µM,1.05 GR
same,GR value,[3]; 0.01 µM,0.907 GR
same,GR value,[3]; 0.03162 µM,-0.453 GR
same,GR value,[3]; 0.1 µM,-0.581 GR
same,GR value,[3]; 0.3162 µM,-0.571 GR
same,GR value,[3]; 1 µM,-0.53 GR
same,GR value,LEE011/Ribociclib; 0.001 µM,0.927 GR
same,GR value,LEE011/Ribociclib; 0.003162 µM,0.816 GR
same,GR value,LEE011/Ribociclib; 0.01 µM,0.661 GR
same,GR value,LEE011/Ribociclib; 0.03162 µM,0.649 GR
same,GR value,LEE011/Ribociclib; 0.1 µM,0.481 GR
same,GR value,LEE011/Ribociclib; 0.3162 µM,0.514 GR
same,GR value,LEE011/Ribociclib; 1 µM,0.528 GR
same,GR value,LEE011/Ribociclib; 3.162 µM,0.394 GR
same,GR value,LEE011/Ribociclib; 10 µM,0.425 GR
same,GR value,THZ531; 0.0001 µM,0.957 GR
same,GR value,THZ531; 0.0003162 µM,0.973 GR
same,GR value,THZ531; 0.001 µM,0.939 GR
same,GR value,THZ531; 0.003162 µM,1.11 GR
same,GR value,THZ531; 0.01 µM,0.84 GR
same,GR value,THZ531; 0.03162 µM,0.788 GR
same,GR value,THZ531; 0.1 µM,0.153 GR
same,GR value,THZ531; 0.3162 µM,-0.45 GR
same,GR value,THZ531; 1 µM,-0.532 GR
same,GR value,THZ1; 0.0001 µM,0.984 GR
same,GR value,THZ1; 0.0003162 µM,1.06 GR
same,GR value,THZ1; 0.001 µM,1.11 GR
same,GR value,THZ1; 0.003162 µM,0.868 GR
same,GR value,THZ1; 0.01 µM,0.532 GR
same,GR value,THZ1; 0.03162 µM,-0.0495 GR
same,GR value,THZ1; 0.1 µM,-0.397 GR
same,GR value,THZ1; 0.3162 µM,-0.435 GR
same,GR value,THZ1; 1 µM,-0.711 GR
same,GR value,Flavopiridol [6]; 0.0001 µM,1.06 GR
same,GR value,Flavopiridol [6]; 0.0003162 µM,1.06 GR
same,GR value,Flavopiridol [6]; 0.001 µM,0.963 GR
same,GR value,Flavopiridol [6]; 0.003162 µM,0.955 GR
same,GR value,Flavopiridol [6]; 0.01 µM,1.01 GR
same,GR value,Flavopiridol [6]; 0.03162 µM,1.08 GR
same,GR value,Flavopiridol [6]; 0.1 µM,0.909 GR
same,GR value,Flavopiridol [6]; 0.3162 µM,0.239 GR
same,GR value,Flavopiridol [6]; 1 µM,-0.603 GR
